Data as given in PubChem BioAssay AID330 (DTP/NCI, 2004).
Where “and” joins values, the source holds several entries; their conditions need not be identical. Equal values may be shown once. Toxic doses and inconclusive results are not listed. Square brackets hold non-standard residues; d marks the D form. Peptide text beside a SMILES is read from it. Abu = CC[CH](N)C(=O)O

Tested on: P388 leukemia ip, CD2F1 mice, survival T/C
Test: NCI In Vivo Anticancer Drug Screen. Data for tumor model P388 Leukemia (intraperitoneal) in CD2F1 (CDF1) mice
Settings: endpoint: median survival time, higher = longer survival
How it was run: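 Mice carrying the transplanted tumor received test compound or vehicle. Survival was recorded in each group, and the value is the treated-group measurement divided by that of the vehicle-treated control group.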

[1] = dose: 60.0 mg/kg/injection, schedule: Q01DX005 (ip), vehicle: saline with Tween-80
[2] = dose: 120.0 mg/kg/injection, schedule: Q01DX005 (ip), vehicle: saline with Tween-80
[3] = dose: 240.0 mg/kg/injection, schedule: Q01DX005 (ip), vehicle: saline with Tween-80
[4] = dose: 50.0 mg/kg/injection, schedule: Q01DX005 (ip), vehicle: Klucel (hydroxypropylcellulose) (HPC)
[5] = dose: 100.0 mg/kg/injection, schedule: Q01DX005 (ip), vehicle: Klucel (hydroxypropylcellulose) (HPC)
[6] = dose: 200.0 mg/kg/injection, schedule: Q01DX005 (ip), vehicle: Klucel (hydroxypropylcellulose) (HPC)
[7] = dose: 25.0 mg/kg/injection, schedule: Q01DX009 (ip), vehicle: Klucel (hydroxypropylcellulose) (HPC)
[8] = dose: 50.0 mg/kg/injection, schedule: Q01DX009 (ip), vehicle: Klucel (hydroxypropylcellulose) (HPC)
[9] = dose: 100.0 mg/kg/injection, schedule: Q01DX009 (ip), vehicle: Klucel (hydroxypropylcellulose) (HPC)
[10] = dose: 12.5 mg/kg/injection, schedule: Q01DX005 (ip), vehicle: Klucel (hydroxypropylcellulose) (HPC)
[11] = dose: 25.0 mg/kg/injection, schedule: Q01DX005 (ip), vehicle: Klucel (hydroxypropylcellulose) (HPC)
[12] = dose: 50.0 mg/kg/injection, schedule: Q01DX005 (ip), vehicle: saline with Tween-80
[13] = dose: 100.0 mg/kg/injection, schedule: Q01DX005 (ip), vehicle: saline with Tween-80
[14] = dose: 200.0 mg/kg/injection, schedule: Q01DX005 (ip), vehicle: saline with Tween-80

SMILES: O=C(c1ccccc1)c1cc(Cl)ccc1NCC(O)COc1ccc(Cl)cc1 (centres undefined)
- T/C [1]: 93 % of control
- T/C [2]: 89 % of control
- T/C [3]: 88 % of control

SMILES: CC1(C)CC(C)(C)[P+]1(C)c1ccccc1
- T/C (dose: 25.0 mg/kg/injection, schedule: Q01DX001 (ip), vehicle: saline): 107 % of control
- T/C (dose: 50.0 mg/kg/injection, schedule: Q01DX001 (ip), vehicle: saline): 103 % of control

SMILES: N#Cc1cc2ccccc2n(Cc2ccccc2)c1=O
- T/C [4]: 101 % of control
- T/C [5]: 109 % of control
- T/C [6]: 100 % of control

SMILES: CC(C)=CCC/C(C)=C/CC1=CC(=O)C=CC1=O
- T/C [7]: 101 % of control
- T/C [8]: 97 % of control
- T/C [9]: 87 % of control

SMILES: COc1cc(/C=N/NP(=S)(Oc2ccc(C(C)(C)C)cc2)Oc2ccc(C(C)(C)C)cc2)cc(OC)c1O
- T/C [8]: 99 % of control
- T/C [9]: 99 % of control

SMILES: Cc1c(C(=O)O)nc(-c2ccc3c(n2)C(=O)C(N)=CC3=O)c2[nH]c3ccccc3c12
- T/C (dose: 0.1 mg/kg/injection, schedule: Q01DX009 (ip), vehicle: distilled water + Tween-80 + alcohol): 110 % of control
- T/C (dose: 0.2 mg/kg/injection, schedule: Q01DX009 (ip), vehicle: distilled water + Tween-80 + alcohol): 116 % of control
- T/C (dose: 0.4 mg/kg/injection, schedule: Q01DX009 (ip), vehicle: distilled water + Tween-80 + alcohol): 112 % of control
- T/C (dose: 0.8 mg/kg/injection, schedule: Q01DX009 (ip), vehicle: distilled water + Tween-80 + alcohol): 113 % of control

SMILES: O=C1/C(=C/c2cccc(F)c2)SC(=S)N1C1CC1
- T/C (dose: 6.25 mg/kg/injection, schedule: Q01DX005 (ip), vehicle: Klucel (hydroxypropylcellulose) (HPC)): 96 % of control
- T/C [10]: 96 % of control
- T/C [11]: 99 % of control
- T/C [4]: 94 % of control
- T/C [5]: 92 % of control
- T/C [6]: 87 % of control

SMILES: CCOC(=O)c1sc(SC)c2c(N)nc(C)nc12
- T/C [12]: 98 % of control
- T/C [13]: 94 % of control
- T/C [14]: 95 % of control

SMILES: O=C1CSC(c2ccc(Cl)cc2)N1N1C(=O)CSC1c1ccc(Cl)cc1 (centres undefined)
- T/C (dose: 60.0 mg/kg/injection, schedule: Q01DX005 (ip), vehicle: Klucel (hydroxypropylcellulose) (HPC)): 99 % of control
- T/C (dose: 120.0 mg/kg/injection, schedule: Q01DX005 (ip), vehicle: Klucel (hydroxypropylcellulose) (HPC)): 91 % of control
- T/C (dose: 240.0 mg/kg/injection, schedule: Q01DX005 (ip), vehicle: Klucel (hydroxypropylcellulose) (HPC)): 90 % of control

SMILES: ON(CCc1ccncc1)CCc1ccncc1
- T/C [12]: 100 % of control
- T/C [13]: 98 % of control
- T/C [14]: 100 % of control

SMILES: COC1=C(C(C2=C(OC)CC(C)(C)CC2=O)c2ccc3c(c2)OCO3)C(=O)CC(C)(C)C1
- T/C [1]: 102 % of control
- T/C [2]: 111 % of control
- T/C [3]: 101 % of control

SMILES: CCC(N)C(=O)NC(CO)C(=O)O (centres undefined) (H-[Abu]-Ser-OH; configuration not given here)
- T/C (dose: 50.0 mg/kg/injection, schedule: Q01DX005 (ip), vehicle: saline): 106 % of control
- T/C (dose: 100.0 mg/kg/injection, schedule: Q01DX005 (ip), vehicle: saline): 109 % of control
- T/C (dose: 200.0 mg/kg/injection, schedule: Q01DX005 (ip), vehicle: saline): 106 % of control

SMILES: Cc1ccc2ccc3ccc(C)nc3c2n1.O=[N+]([O-])O.O=[N+]([O-])O.[Cu]
- T/C (dose: 6.25 mg/kg/injection, schedule: Q04DX002 (ip), vehicle: saline): 109 % of control
- T/C (dose: 12.5 mg/kg/injection, schedule: Q04DX002 (ip), vehicle: saline): 113 % of control

SMILES: NC(=O)C1=C2NC(=O)c3ccccc3C2C2=C1CCCC2 (centres undefined)
- T/C [10]: 90 % of control
- T/C [11]: 92 % of control
- T/C [4]: 98 % of control and 105 % of control

SMILES: Cc1ccc(/C=N/N)s1
- T/C (dose: 50.0 mg/kg/injection, schedule: Q04DX003 (ip), vehicle: other): 90 % of control
- T/C (dose: 100.0 mg/kg/injection, schedule: Q04DX003 (ip), vehicle: other): 100 % of control
- T/C (dose: 200.0 mg/kg/injection, schedule: Q04DX003 (ip), vehicle: other): 100 % of control

SMILES: COc1cc(CCNC(C)=O)cc(OC)c1OC
- T/C (dose: 25.0 mg/kg/injection, schedule: Q01DX005 (ip), vehicle: water): 100 % of control
- T/C (dose: 50.0 mg/kg/injection, schedule: Q01DX005 (ip), vehicle: water): 104 % of control
- T/C (dose: 100.0 mg/kg/injection, schedule: Q01DX005 (ip), vehicle: water): 100 % of control
- T/C (dose: 200.0 mg/kg/injection, schedule: Q01DX005 (ip), vehicle: water): 91 % of control

SMILES: O=C(NC(Cc1ccc(I)cc1)C(=O)O)c1ccc(Br)cc1 (centres undefined)
- T/C (dose: 12.5 mg/kg/injection, schedule: Q01DX005 (ip), vehicle: sodium bicarbonate): 104 % of control
- T/C (dose: 25.0 mg/kg/injection, schedule: Q01DX005 (ip), vehicle: sodium bicarbonate): 100 % of control
- T/C [4]: 98 % of control
- T/C (dose: 50.0 mg/kg/injection, schedule: Q01DX005 (ip), vehicle: sodium bicarbonate): 94 % of control
- T/C [5]: 98 % of control
- T/C (dose: 100.0 mg/kg/injection, schedule: Q01DX005 (ip), vehicle: sodium bicarbonate): 90 % of control and 94 % of control
- T/C [6]: 101 % of control

SMILES: Cc1ccc(S(=O)(=O)OCCN(CCOS(=O)(=O)c2ccc(C)cc2)c2ccc(F)cc2)cc1
- T/C (dose: 0.63 mg/kg/injection, schedule: Q01DX009 (ip), vehicle: other): 104 % of control
- T/C (dose: 1.25 mg/kg/injection, schedule: Q01DX009 (ip), vehicle: other): 118 % of control
- T/C (dose: 5.0 mg/kg/injection, schedule: Q01DX009 (ip), vehicle: other): 150 % of control

SMILES: Cc1ccc(S(=O)(=O)/C=C/CCl)cc1
- T/C [12]: 103 % of control
- T/C [13]: 113 % of control

SMILES: CCCCCCCCC[N+](C)([O-])CCCCCC[N+](C)([O-])CCCCCCCCC (centres undefined)
- T/C (dose: 12.5 mg/kg/injection, schedule: Q04DX003 (ip), vehicle: saline): 103 % of control
- T/C (dose: 25.0 mg/kg/injection, schedule: Q04DX003 (ip), vehicle: saline): 96 % of control
- T/C (dose: 50.0 mg/kg/injection, schedule: Q04DX003 (ip), vehicle: saline): 93 % of control

SMILES: C#CC(=O)OCC#CCOC(=O)C#C
- T/C (dose: 0.75 mg/kg/injection, schedule: Q01DX009 (ip), vehicle: saline with Tween-80): 104 % of control
- T/C (dose: 1.5 mg/kg/injection, schedule: Q01DX009 (ip), vehicle: saline with Tween-80): 104 % of control
- T/C (dose: 3.0 mg/kg/injection, schedule: Q01DX009 (ip), vehicle: saline with Tween-80): 112 % of control
- T/C (dose: 6.0 mg/kg/injection, schedule: Q01DX009 (ip), vehicle: saline with Tween-80): 96 % of control

SMILES: CC(=O)NS(=O)(=O)c1ccc(NCc2c3ccccc3nc3cc(Cl)ccc23)cc1
- T/C [1]: 114 % of control
- T/C [2]: 102 % of control
- T/C [3]: 105 % of control

SMILES: CCn1c2ccccc2c2cc(N=Nc3cc(N)ccc3N(C)C)ccc21
- T/C [12]: 87 % of control
- T/C [13]: 87 % of control
- T/C [14]: 87 % of control

SMILES: Clc1nn2cnnc2c2ncccc12
- T/C (dose: 12.5 mg/kg/injection, schedule: Q01DX009 (ip), vehicle: Klucel (hydroxypropylcellulose) (HPC)): 91 % of control
- T/C [7]: 96 % of control
- T/C [8]: 92 % of control and 97 % of control

SMILES: COC(=O)C(C)NC(=O)C(Cc1c[nH]c2ccccc12)NC(=O)OC(C)(C)C (centres undefined)
- T/C (dose: 12.5 mg/kg/injection, schedule: Q01DX009 (ip), vehicle: other): 88 % of control
- T/C (dose: 25.0 mg/kg/injection, schedule: Q01DX009 (ip), vehicle: other): 89 % of control
- T/C (dose: 50.0 mg/kg/injection, schedule: Q01DX009 (ip), vehicle: other): 100 % of control
- T/C (dose: 100.0 mg/kg/injection, schedule: Q01DX009 (ip), vehicle: other): 101 % of control
- T/C (dose: 200.0 mg/kg/injection, schedule: Q01DX009 (ip), vehicle: other): 117 % of control

SMILES: N#CC1c2ccccc2C=CN1C(=O)CCCl (centres undefined)
- T/C [8]: 106 % of control
- T/C [9]: 108 % of control
- T/C (dose: 200.0 mg/kg/injection, schedule: Q01DX009 (ip), vehicle: Klucel (hydroxypropylcellulose) (HPC)): 108 % of control

SMILES: O=C(/C=C/c1ccccc1)C/C(=N/O)C(=O)NO
- T/C (dose: 60.0 mg/kg/injection, schedule: Q01DX005 (ip), vehicle: saline): 104 % of control
- T/C (dose: 120.0 mg/kg/injection, schedule: Q01DX005 (ip), vehicle: saline): 101 % of control
- T/C (dose: 240.0 mg/kg/injection, schedule: Q01DX005 (ip), vehicle: saline): 103 % of control
